From BindingDB's records for doi:10.1016/j.bmcl.2018.05.009 (Vanderbilt University Medical Center, 2018) come the findings set out here.

As usually defined, the EC50 is the concentration that produces a half-maximal response.

Experiment [1] concerns the target T1, Muscarinic acetylcholine receptor M1 (Homo sapiens, UniProt P11229).
T1 sequence (P11229 whole entry): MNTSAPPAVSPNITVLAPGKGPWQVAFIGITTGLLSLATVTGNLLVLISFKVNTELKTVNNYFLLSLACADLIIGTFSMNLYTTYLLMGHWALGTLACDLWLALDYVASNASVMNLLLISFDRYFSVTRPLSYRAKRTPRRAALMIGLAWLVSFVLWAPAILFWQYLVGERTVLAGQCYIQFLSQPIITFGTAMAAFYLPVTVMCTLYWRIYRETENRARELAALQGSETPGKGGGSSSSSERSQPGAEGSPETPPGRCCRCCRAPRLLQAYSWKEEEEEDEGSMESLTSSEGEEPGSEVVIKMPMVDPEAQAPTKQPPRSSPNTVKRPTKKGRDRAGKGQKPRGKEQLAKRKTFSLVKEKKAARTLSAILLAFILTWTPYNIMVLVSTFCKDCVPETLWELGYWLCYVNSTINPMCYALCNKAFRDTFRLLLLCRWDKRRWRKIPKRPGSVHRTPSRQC
Description: ChEBML_1712853. From the text: Positive allosteric modulation of human muscarinic acetylcholine M1 receptor expressed in CHO-NFAT cells assessed as potentiation of acetylcholine-induced calcium mobilization after 4 hrs by CCF4-AM dye-based assay

Experiment [2] addresses T1, Muscarinic acetylcholine receptor M1. Description: Positive allosteric modulation of human muscarinic acetylcholine M1 receptor expressed in CHO cells assessed as potentiation of acetylcholine-induced calcium mobilization. On the technique in general: Calcium assays in cells follow changes in intracellular calcium, usually with a dye or a luminescent sensor.

With `O=C(N[C@H]1CCCC[C@@H]1O)C1CN(Cc2ccc(-n3cccn3)cc2)c2ccccc2O1` (some centres not stated), the EC50 in experiment [1] was 794 nM.
With `Cn1cc(-c2ccc(CN3CC(C(=O)N[C@H]4CCCC[C@@H]4O)Oc4ccccc43)cn2)cn1` (some centres not stated), the EC50 in experiment [2] was 178 nM.
